The record followed here is PMC4865845, “A human genome-wide loss-of-function screen identifies effective chikungunya antiviral drugs” (Nature Communications, 2016).

The test system of this series is CHIKV. The class given is cell-based, chikungunya virus.
For the substance “Hs_TUSC1_1 (TCCCTGTACATCTAATATATA; chemistry not given here) [reference compound]”, the Score_si1 is -1.75.

“Hs_PGD_1 (TAGAAGTGTATTCCTAGGAAA; chemistry not given here)” showed a Score_si1 of 3.09.

As for “Hs_PRPF40A_2 (sense CTGGAAAGCCTTACTATTATA; chemistry not given here)”, the Score_si1 is recorded as 2.41.

Substance “Hs_NPEPL1_3 (CTGCAATGAGATGAACACCGA; chemistry not given here)” gave a Score_si1 of 2.35.

Substance “Hs_POLR1A_1 (AAGGTTGATGACTACAGTCAA; chemistry not given here)” yielded a Score_si1 of 1.93.

“s7007 (sense GGATCGGGTTCTAAAGGAA; chemistry not given here)” returned a Score_si2 of 1.87.

“s24924 (sense CAGTCGTCCTCAGATGATA; chemistry not given here) [reference compound]” displayed a Score_si3 of -0.67.

In turn, “Hs_SYMPK_1 (sense CAGGAGCTGATCATCAACAAA; chemistry not given here)” registered a Score_si3 of 1.54.

“s15687 (sense CCCGTATCATGATCCACCA; chemistry not given here)” gave a Score_si1 of 1.56.

Regarding “Hs_TAZ_2 (sense CCGCCACATCTGGAACCTGAA; chemistry not given here)”, the Score_si1 was 2.45.

Consider “Hs_NRD1_3 (CAAGCAATACCGATACATCAA; chemistry not given here)”, for which the Score_si4 turned out to be 0.87.

Take “s5032 (sense GGAGCGTATCTGTGAGAAA; chemistry not given here)”: the Score_si4 is listed as 1.56.

Take “Hs_CLCN6_2 (sense CCGGTGAATGTTATTGGAATT; chemistry not given here)”: the Score_si3 is -0.01.

“Hs_SEC61B_1 (sense TTTAATTCACTTATACTGAAA; chemistry not given here)” had a Score_si1 of 1.55.

On to “Hs_TRAF2_4 (CTGGACCAAGACAAGATTGAA; chemistry not given here) [reference compound]”, for which the Score_si1 is reported as -1.15.

The substance “Hs_CSNK1A1_3 (sense AAGAACTTAATTTCAGTATAA; chemistry not given here)” had a Score_si3 of 1.65.

On to “Hs_CHD8_2 (sense AAGGATAAGAGGATACATCAA; chemistry not given here)”, for which the Score_si3 worked out at 1.53.

As to “Hs_HTATIP_8 (sense CACCACATTGCCTGTCCTCTA; chemistry not given here)”, the Score_si1 was found to be 2.67.

In turn, “s8541 (CAATCTCCGGAGGCACGAA; chemistry not given here)” displayed a Score_si3 of 0.12.

“s5030 (sense GGTATGCGACGGGAAAGTA; chemistry not given here)” returned a Score_si3 of 1.75.

As to “Hs_KAZALD1_2 (sense ACAGGGCTAGGCACCAATAAA; chemistry not given here)”, the Score_si1 worked out at 1.74.

Consider “s2822 (sense TGCTGACTTTTAACCCACA; chemistry not given here)”, for which the Score_si4 came out at 1.

Regarding “Hs_GCN1L1_2 (sense CAGGTTCAGCTGGAATGTGAA; chemistry not given here)”, the Score_si1 came out at 2.09.

“s19038 (sense GGAATATTCTTCAGCTACA; chemistry not given here)” registered a Score_si3 of 1.51.

Consider “s15564 (sense GCTTGAAGCTGAAAAGCGA; chemistry not given here) [reference compound]”, for which the Score_si4 is 1.62.

In turn, “Hs_CDC25A_1 (sense AAGGCGCTATTTGGCGCTTCA; chemistry not given here)” showed a Score_si2 of 1.56.

In turn, “Hs_CCDC6_1 (sense ATGGATAATTATCGTATATTA; chemistry not given here) [reference compound]” yielded a Score_si1 of -2.65.

The substance “Hs_ATP6V0C_2 (CTGGATGTTTATTTATAAAGA; chemistry not given here)” returned a Score_si1 of 3.5.

“s9326 (GGACTTAGTATAATGTGAA; chemistry not given here)” returned a Score_si2 of 1.

As for “s27209 (sense GGGTATAGAGGATAACCAA; chemistry not given here) [reference compound]”, the Score_si2 is -0.58.

With “s19089 (sense GGATAAGACAGTAACCCGA; chemistry not given here) [reference compound]”, the Score_si3 is listed as -0.56.

As for “Hs_GP1BB_3 (sense CTGCTGCGTCTCCCTTCCAAA; chemistry not given here) [reference compound]”, the Score_si2 is -0.99.

“Hs_CUL4A_1 (sense ACCCATATTATTAGTGATAAA; chemistry not given here) [reference compound]” registered a Score_si1 of -2.33.

“Hs_ZZZ3_1 (CAGCCTGATGGGAACACTAAA; chemistry not given here) [reference compound]”: the Score_si1 is reported as -2.9.

Take “s195939 (sense GCGGCTGATTTATCTCTGC; chemistry not given here) [reference compound]”: the Score_si4 was -0.22.

For the substance “Hs_GLTSCR2_4 (sense CAAGTTCAAACGCAAGTACAA; chemistry not given here)”, the Score_si2 is recorded as 1.95.

As to “Hs_MGC21830_2 (CAGCTGGGCGGTGCTGTTCGA; chemistry not given here) [reference compound]”, the Score_si2 is -1.02.

“Hs_CNOT3_1 (sense CTCGGACACTGTGGAATTCTA; chemistry not given here)” had a Score_si1 of 2.54.

Turning to “Hs_AP2M1_3 (ACGTGTGACTTCGTCCAGTTA; chemistry not given here)”, the Score_si1 came to 2.57.

For “Hs_GPSN2_2 (sense GTGGATGGCCTATTACATCAA; chemistry not given here)”, the Score_si1 was 2.86.

Regarding “Hs_SCLY_1 (sense CTGACTCAGCTTATACCTTAA; chemistry not given here)”, the Score_si3 is listed as 1.21.

For “Hs_SARS_2 (sense CTGATGAAACCATGTAATAAA; chemistry not given here)”, the Score_si1 is given as 2.9.

On to “Hs_KRTHA2_1 (sense CAGATGGAGGAGCTTAACCAA; chemistry not given here)”, for which the Score_si1 is given as 1.15.

The substance “s9338 (ACAAGCTCTCCAACAATTA; chemistry not given here) [reference compound]” returned a Score_si2 of -0.79.

As to “Hs_TOR2A_2 (CACGGGTGGCGAGCAGATCAA; chemistry not given here)”, the Score_si1 is listed as 2.35.

Consider “Hs_E2F3_5 (TACAGTATTTGCGTTACTTTA; chemistry not given here) [reference compound]”, for which the Score_si2 is on record as -1.78.

In the case of “Hs_YEATS4_3 (AAAGGGTGTTACTATCGTTAA; chemistry not given here)”, the Score_si3 came to 0.92.

Regarding “Hs_SEC61B_2 (sense CCCAACATTTCTTGGACCAAA; chemistry not given here)”, the Score_si3 was 1.09.

Take “Hs_ANKRD9_2 (CTCCCAGGAGCTAACGTATAA; chemistry not given here)”: the Score_si2 is 2.08.

Substance “Hs_INTS8_2 (sense CTGGGAATTAAAGACAATTTA; chemistry not given here)” had a Score_si2 of 2.65.

For the substance “Hs_FXC1_2 (sense CAAGTATTTGTTGGTTCATAA; chemistry not given here)”, the Score_si1 turned out to be 2.83.

Take “Hs_BCHE_4 (CAGAACGTTGAACTTAGCTAA; chemistry not given here)”: the Score_si1 is recorded as 0.93.

“Hs_EEF1A1_4 (CAACGTTACAACGGAAGTAAA; chemistry not given here)” returned a Score_si1 of 2.64.

In the case of “Hs_SDFR1_9 (sense CTGGTACATAAAGATGAGTAA; chemistry not given here) [reference compound]”, the Score_si3 is -1.41.

Take “s4917 (sense GTGTATGAGTTTAGAGTCA; chemistry not given here)”: the Score_si2 came to 1.15.

“Hs_PDLIM5_6 (TCCGATGTGCGCCCATTGTAA; chemistry not given here)” displayed a Score_si3 of 0.87.

With “s26228 (sense GAACCTCACTGAGCCTTGA; chemistry not given here)”, the Score_si2 is on record as 0.75.

On to “s21624 (sense GGTGTAACCGATTCACTAT; chemistry not given here)”, for which the Score_si3 was 0.86.

Consider “s31659 (CCTCTGAGGTGATCAATGA; chemistry not given here)”, for which the Score_si3 is 1.43.

Take “s20833 (sense GAATATGACTCTGCAAAGA; chemistry not given here)”: the Score_si4 is reported as 0.65.

“s10394 (GCTTTATGCTGCTAAGGCA; chemistry not given here)”: the Score_si4 is listed as 1.23.

“Hs_PCQAP_1 (CCGCATGATCAACAAGATCGA; chemistry not given here) [reference compound]”: the Score_si1 is given as -1.12.

On to “Hs_DKFZP564C186_2 (CACGGACAGTGCTGCATTCAA; chemistry not given here)”, for which the Score_si3 came out at 1.17.

On to “Hs_DKFZP434B168_1 (CTGAAATTACTTGCTAATAAA; chemistry not given here)”, for which the Score_si3 came to 1.61.

“Hs_RARSL_4 (sense CCAGCTTTCCAGAGTGTTGAA; chemistry not given here) [reference compound]” came in with a Score_si3 of -1.26.

“s8261 (sense GGGTGGAGGTGTACTATGA; chemistry not given here)” yielded a Score_si3 of 0.99.

Consider “Hs_FTSJ2_1 (sense CAGAGGAATTCCAGAATGTAA; chemistry not given here)”, for which the Score_si2 came to 1.91.

“Hs_PPP1R8_6 (TACAAATAAAGATGCCCTAAA; chemistry not given here)” came in with a Score_si2 of 0.7.

Take “Hs_LIP8_1 (sense CTGGACTTTGCTAAAGCAGAA; chemistry not given here)”: the Score_si4 was 0.62.

Substance “s26229 (sense GGTGGTATACGGGACCAAT; chemistry not given here)” registered a Score_si3 of -0.1.

With “Hs_CRSP7_2 (sense GAGAAATACCCTATTACCAAA; chemistry not given here) [reference compound]”, the Score_si1 was -1.9.
